Measured values published in ChEMBL document CHEMBL4665860, “Focused structure-activity relationship profiling around the 2-phenylindole scaffold of a cannabinoid type-1 receptor agonist-positive allosteric modulator: site-III aromatic-ring congeners with enhanced activity and solubility” (Bioorg Med Chem, 2020).
pEC50: −log10 of the molar value. Converted amounts (≈) assume the structure as drawn.

Assays:
Cannabinoid receptor 1 [1] = target: T1, Cannabinoid receptor 1 (Homo sapiens, UniProt P21554); assay: Positive allosteric modulatory activity at human CB1 receptor expressed in CHO-K1 cells assessed as increase in CP55940-induced beta-arrestin recruitment preincubated 90 mins followed by CP55940 addition and measured after 60 mins by PathHunter assay relative to CP55940; type: cell-based
Cannabinoid receptor 1 [2] = target: T1, Cannabinoid receptor 1; assay: Positive allosteric modulatory activity at human CB1 receptor expressed in CHO-K1 cells assessed as increase in CP55940-induced inhibition of forskolin-stimulated cAMP production preincubated for 30 mins followed by CP55940 addition and measured after 60 mins by Hit-hunter assay relative to control; type: functional, cell-based
Cannabinoid receptor 1 [3] = target: T1, Cannabinoid receptor 1; assay: Positive allosteric modulatory activity at human CB1 receptor expressed in CHO-K1 cells assessed as increase in CP55940-induced beta-arrestin recruitment […] and measured after 60 mins by PathHunter assay; type: cell-based
Cannabinoid receptor 1 [4] = target: T1, Cannabinoid receptor 1; assay: Positive allosteric modulatory activity at human CB1 receptor expressed in CHO-K1 cells assessed as increase in CP55940-induced inhibition of forskolin-stimulated cAMP production preincubated for 30 mins […] by Hit-hunter assay; type: functional, cell-based
physchem = settings: PBS, pH 7.4
[5] = filed as positive allosteric modulator

T1 sequence (P21554 whole entry): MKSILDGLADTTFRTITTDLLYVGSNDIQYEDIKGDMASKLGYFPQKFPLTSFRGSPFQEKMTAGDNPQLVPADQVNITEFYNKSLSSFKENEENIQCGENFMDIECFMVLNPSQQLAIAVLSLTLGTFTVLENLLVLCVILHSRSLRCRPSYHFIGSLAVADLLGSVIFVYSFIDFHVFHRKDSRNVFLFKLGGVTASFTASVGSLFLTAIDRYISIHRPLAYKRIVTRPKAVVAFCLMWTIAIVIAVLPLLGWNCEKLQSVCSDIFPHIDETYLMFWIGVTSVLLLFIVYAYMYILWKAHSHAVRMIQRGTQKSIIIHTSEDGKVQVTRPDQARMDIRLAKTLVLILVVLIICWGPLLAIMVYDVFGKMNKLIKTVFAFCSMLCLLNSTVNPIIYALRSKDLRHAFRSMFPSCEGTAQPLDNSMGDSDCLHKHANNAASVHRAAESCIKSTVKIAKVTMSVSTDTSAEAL

Row | Compound | Emax (Cannabinoid receptor 1 [1]; [5]) | Emax (Cannabinoid receptor 1 [2]; [5]) | pEC50 (Cannabinoid receptor 1 [3]) | pEC50 (Cannabinoid receptor 1 [4]) | Emax (Cannabinoid receptor 1 [1]) | solubility kinetic at 2 h (physchem) | Emax (Cannabinoid receptor 1 [2])
1 | O=[N+]([O-])CC(c1ccccc1C(F)(F)F)c1c(-c2ccccc2)[nH]c2ccccc12 (stereo not drawn) | 68.1% | 86.2% | 6.10 | 6.25 |  |  | 
2 | O=[N+]([O-])CC(c1cccc(C(F)(F)F)c1)c1c(-c2ccccc2)[nH]c2ccccc12 (stereo not drawn) |  | 151% | < 5.00 | 6.90 | 0% |  | 
3 | O=[N+]([O-])CC(c1cccc(N2CCCC2)c1)c1c(-c2ccccc2)[nH]c2ccccc12 (stereo not drawn) |  | 110% | < 5.00 | 6.37 | 6.69% |  | 
4 | O=[N+]([O-])CC(c1cccs1)c1c(-c2ccccc2)[nH]c2ccccc12 (stereo not drawn) |  | 116% | 6.23 | 7.51 | 36.1% |  | 
5 | O=[N+]([O-])CC(c1cccc2ccccc12)c1c(-c2ccccc2)[nH]c2ccccc12 (stereo not drawn) |  | 62.2% | < 5.00 | < 5.00 | 0% |  | 
6 | O=[N+]([O-])CC(c1ccc[nH]1)c1c(-c2ccccc2)[nH]c2ccccc12 (stereo not drawn) |  | 77.1% | < 5.00 | 6.68 | 0.7% |  | 
7 | O=[N+]([O-])CC(c1ccc(N2CCCCC2)cc1)c1c(-c2ccccc2)[nH]c2ccccc12 (stereo not drawn) | 42.1% | 125% | 5.61 | 6.32 |  |  | 
8 | Cc1ccccc1C(C[N+](=O)[O-])c1c(-c2ccccc2)[nH]c2ccccc12 (stereo not drawn) | 68.5% | 81.7% | 7.24 | 8.52 |  |  | 
9 | Cc1ccc2c(C(C[N+](=O)[O-])c3nccs3)c(-c3ccccc3)[nH]c2c1 (stereo not drawn) | 80.6% | 98.5% | 6.79 | 7.30 |  | 3.13 µM (≈ 1.14 µg/mL) | 
10 | O=[N+]([O-])CC(c1cccc(F)c1)c1c(-c2ccccc2)[nH]c2ccccc12 (stereo not drawn) |  | 118% | < 5.00 |  | 15.7% |  | 
11 | O=[N+]([O-])CC(c1ccoc1)c1c(-c2ccccc2)[nH]c2ccccc12 (stereo not drawn) |  | 144% | < 5.00 | 6.29 | 12.9% |  | 
12 | O=[N+]([O-])CC(c1ccc(N2CCCC2)cc1)c1c(-c2ccccc2)[nH]c2ccccc12 (stereo not drawn) |  | 97.4% | < 5.00 | 6.21 | 0% |  | 
13 | O=[N+]([O-])CC(c1ccccc1)c1c(-c2ccccc2)[nH]c2ccccc12 (stereo not drawn) | 54.1% | 99.6% |  |  |  |  | 
14 | O=[N+]([O-])CC(c1ncco1)c1c(-c2ccccc2)[nH]c2ccccc12 (stereo not drawn) |  | 56.6% | < 5.00 | 6.07 | 3.21% |  | 
15 | O=[N+]([O-])CC(c1ccccc1Cl)c1c(-c2ccccc2)[nH]c2ccccc12 (stereo not drawn) | 93.4% | 75% | 5.91 | 7.74 |  |  | 
16 | O=[N+]([O-])CC(c1ccc(F)cc1)c1c(-c2ccccc2)[nH]c2ccccc12 (stereo not drawn) |  |  | < 5.00 |  |  |  | 
17 | COc1ccccc1C(C[N+](=O)[O-])c1c(-c2ccccc2)[nH]c2ccccc12 (stereo not drawn) |  | 118% | 5.73 | 6.39 | 37% |  | 
18 | Cc1ccc2c(C(C[N+](=O)[O-])c3ncco3)c(-c3ccccc3)[nH]c2c1 (stereo not drawn) |  | 67.2% | < 5.00 | 6.58 | 14.5% | 12.5 µM (≈ 4.34 µg/mL) | 
19 | Cc1ccc2c(C(C[N+](=O)[O-])c3cccs3)c(-c3ccccc3)[nH]c2c1 (stereo not drawn) | 78.2% |  | 6.42 | 7.48 |  | 1.56 µM (≈ 0.565 µg/mL) | 
20 | O=[N+]([O-])CC(c1c(-c2ccccc2)[nH]c2ccccc12)C1CCCCC1 (stereo not drawn) |  | 117% | 5.72 | 6.31 | 26.8% |  | 
21 | O=[N+]([O-])CC(c1c(Cl)cccc1Cl)c1c(-c2ccccc2)[nH]c2ccccc12 (stereo not drawn) |  | 128% | < 5.00 | 6.24 | 3.72% |  | 

Row | Compound | Emax (Cannabinoid receptor 1 [1]; [5]) | Emax (Cannabinoid receptor 1 [2]; [5]) | pEC50 (Cannabinoid receptor 1 [3]) | pEC50 (Cannabinoid receptor 1 [4]) | Emax (Cannabinoid receptor 1 [1]) | solubility kinetic at 2 h (physchem) | Emax (Cannabinoid receptor 1 [2])
22 | O=[N+]([O-])CC(c1ccc(Cl)cc1)c1c(-c2ccccc2)[nH]c2ccccc12 (stereo not drawn) |  | 74.8% | < 5.00 | 5.88 | 0% |  | 
23 | Cc1ccc(C(C[N+](=O)[O-])c2c(-c3ccccc3)[nH]c3ccccc23)cc1 (stereo not drawn) |  | 119% | < 5.00 | 5.84 | 0% |  | 
24 | COc1cccc(C(C[N+](=O)[O-])c2c(-c3ccccc3)[nH]c3ccccc23)c1 (stereo not drawn) |  | 131% | < 5.00 | 6.18 | 4.96% |  | 
25 | O=[N+]([O-])CC(c1ccc(C(F)(F)F)cc1)c1c(-c2ccccc2)[nH]c2ccccc12 (stereo not drawn) |  | 65.1% | < 5.00 | < 5.00 | 0% |  | 
26 | Cc1cccc(C(C[N+](=O)[O-])c2c(-c3ccccc3)[nH]c3ccccc23)c1 (stereo not drawn) |  | 116% | 5.70 | 6.18 | 23.8% |  | 
27 | CC(C)(C)c1ccc(C(C[N+](=O)[O-])c2c(-c3ccccc3)[nH]c3ccccc23)cc1 (stereo not drawn) |  | 109% | < 5.00 | 6.69 | 5.57% |  | 
28 | O=[N+]([O-])CC(c1ccsc1)c1c(-c2ccccc2)[nH]c2ccccc12 (stereo not drawn) |  | 125% | 5.79 | 6.92 | 23.9% |  | 
29 | O=[N+]([O-])CC(Cc1ccccc1)c1c(-c2ccccc2)[nH]c2ccccc12 (stereo not drawn) |  | 115% | < 5.00 | 6.38 | 0% |  | 
30 | O=[N+]([O-])CC(c1ccco1)c1c(-c2ccccc2)[nH]c2ccccc12 (stereo not drawn) |  | 99.8% | 6.18 | 6.61 | 28.8% |  | 
31 | O=[N+]([O-])CC(c1ccc2ccccc2c1)c1c(-c2ccccc2)[nH]c2ccccc12 (stereo not drawn) |  | 113% | 5.63 | 6.32 | 31.8% |  | 
32 | O=[N+]([O-])CC(c1cccc(Cl)c1)c1c(-c2ccccc2)[nH]c2ccccc12 (stereo not drawn) |  | 121% | 5.53 | 6.07 | 16% |  | 
33 | O=[N+]([O-])CC(c1ccccc1F)c1c(-c2ccccc2)[nH]c2ccccc12 (stereo not drawn) | 56% |  | 6.11 |  |  |  | 
34 | O=[N+]([O-])CC(c1ccccc1N1CCCC1)c1c(-c2ccccc2)[nH]c2ccccc12 (stereo not drawn) |  | 75.9% | < 5.00 | 5.74 | 7.28% |  | 
35 | Cn1cncc1C(C[N+](=O)[O-])c1c(-c2ccccc2)[nH]c2ccccc12 (stereo not drawn) |  | 46.1% | < 5.00 | < 5.00 | 0% |  | 
36 | O=[N+]([O-])CC(c1ccc(-c2ccccc2)cc1)c1c(-c2ccccc2)[nH]c2ccccc12 (stereo not drawn) |  |  | < 5.00 | < 5.00 | 5% |  | 25.5%
37 | COc1ccc(C(C[N+](=O)[O-])c2c(-c3ccccc3)[nH]c3ccccc23)cc1 (stereo not drawn) |  | 119% | < 5.00 | 5.93 | 0% |  | 
38 | Cn1ccnc1C(C[N+](=O)[O-])c1c(-c2ccccc2)[nH]c2ccccc12 (stereo not drawn) |  | 52.7% | < 5.00 | 6.27 | 0% |  | 
39 | O=[N+]([O-])CC(c1ccc(N2CCOCC2)cc1)c1c(-c2ccccc2)[nH]c2ccccc12 (stereo not drawn) |  | 87.6% | < 5.00 | < 5.00 | 0% |  | 
40 | Cn1cnc(C(C[N+](=O)[O-])c2c(-c3ccccc3)[nH]c3ccccc23)c1 (stereo not drawn) |  |  | < 5.00 | < 5.00 | 0.667% |  | 34.4%
41 | O=[N+]([O-])CC(c1nccs1)c1c(-c2ccccc2)[nH]c2ccccc12 (stereo not drawn) |  | 83.7% | 6.48 | 6.72 | 32.6% |  | 
